Assay results reported in patent publication US9974792B2, “Methods for treating cancers” (Gilead Sciences, Inc., priority 2013, dated 2018).

Tests used:
[1] = test system: subjects with CLL, FL, lymphoplasmacytoid lymphoma/SLL/marginal zone lymphoma, MCL, or DLBCL; experiment: Example 2: phase 2 trial, safety analysis of all treated subjects
Procedure: A phase 2, open-label, single-agent study was completed to evaluate the efficacy, safety, tolerability, and pharmacodynamics of entospletinib in subjects with relapsed or refractory hematologic malignancies.
Treatment with entospletinib was at a dose of 800 mg twice a day over 28-day cycles under fasted conditions. Fasting was defined as no food or liquids other than water for 2 hours pre- and 1 hour post-dose.
Secondary end points included tolerability, objective response rate (ORR), duration of response (DOR), time to response, and lymph node response rate. […] Exploratory end points included plasma drug concentrations and pharmacodynamic biomarkers.
Subjects were allowed to enroll in the study if they had cytopenias due to CLL. Treatment-emergent cytopenias were defined as a cytopenia that worsened in the period from the first dose of study treatment to 30 days after the last dose of study treatment.

[2] = Example 2: entospletinib plasma pharmacokinetics; type: in vivo, human; details: 800 mg twice a day, fasted
Excerpt: Clinic visits, including laboratory tests and pharmacodynamic measurements, were scheduled for day 1 of each 28-day cycle. Blood samples for pharmacokinetic analyses of entospletinib were collected on day 1 of each 28-day cycle, on days 8, 15, and 22 of cycle 1 and on day 15 of cycle 2. Additional safety monitoring visits took place on days 8, 15, and 22 of cycle 1 and day 15 of cycle 2.

[3] = test system: human subjects with CLL or NHL; experiment: Example 1: safety, disposition and adverse events (Safety Data Set);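 further: evaluated subjects had CLL, FL, DLBCL, MCL, LPL, SLL or MZL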
Procedure: Subjects having various hematologic malignancies were evaluated, including subjects with chronic lymphocytic leukemia (CLL), follicular lymphoma (FL), diffuse large B-cell lymphoma (DLBCL), mantle cell lymphoma (MCL), lymphoplasmacytic lymphoma (LPL), small lymphocytic lymphoma (SLL), and marginal zone lymphoma (MZL). The sample size was 10-40/arm.
Alanine aminotransferase (ALT) was also measured in the subjects.

[4] = out of 78 subjects, 800 mg BID fasting

SMILES: c1cn2cc(-c3ccc4cn[nH]c4c3)nc(Nc3ccc(N4CCOCC4)cc3)c2n1 [compound of formula I, 6-(1H-indazol-6-yl)-N-(4-morpholinophenyl)imidazo[1,2-a]pyrazin-8-amine]
- AE leading to study drug discontinuation: fatigue ([1]; N = 145): 3 n
- AE leading to study drug discontinuation: headache ([1]; N = 145): 3 n
- AE leading to study drug discontinuation: increased ALT ([1]; N = 145): 3 n
- AEs resulting in discontinuation, % of all treated subjects ([1]; N = 145): 14.5%
- AEs resulting in dose reduction, % of all treated subjects ([1]; N = 145): 7.6%
- Constipation, Any grade, % ([1]; N = 145): (24.1) %
- Constipation, At least grade 3, % ([1]; N = 145): (1.4) %
- Cough, Any grade, % ([1]; N = 145): (19.3) %
- Cough, At least grade 3, % ([1]; N = 145): (0.7) %
- Decreased appetite, Any grade, % ([1]; N = 145): (24.1) %
- Decreased appetite, At least grade 3, % ([1]; N = 145): (0.7) %
- Diarrhea, Any grade, % ([1]; N = 145): (34.5) %
- Diarrhea, At least grade 3, % ([1]; N = 145): (0.7) %
- Dizziness, Any grade, % ([1]; N = 145): (20.7) %
- Dizziness, At least grade 3, % ([1]; N = 145): (0.7) %
- Fatigue, Any grade, % ([1]; N = 145): (51.7) %
- Fatigue, At least grade 3, % ([1]; N = 145): (6.9) %
- Grade 3 fatigue, % ([1]; N = 145): 6.9%
- Grade 3 fatigue, subjects ([1]; N = 145): 10 subjects
- Headache, Any grade, % ([1]; N = 145): (22.8) %
- Headache, At least grade 3, % ([1]; N = 145): (0.7) %
- Insomnia, Any grade, % ([1]; N = 145): (15.9) %
- Laboratory abnormality: Anemia, Any grade, % ([1]; N = 145): (37.2) %
- Laboratory abnormality: Increased ALT, Any grade, % ([1]; N = 145): (37.2) %
- Laboratory abnormality: Increased ALT, At least grade 3, % ([1]; N = 145): (13.8) %
- Laboratory abnormality: Increased AST, Any grade, % ([1]; N = 145): (33.8) %
- Laboratory abnormality: Increased AST, At least grade 3, % ([1]; N = 145): (12.4) %
- Laboratory abnormality: Neutropenia, Any grade, % ([1]; N = 145): (32.4) %
- Laboratory abnormality: Thrombocytopenia, Any grade, % ([1]; N = 145): (6.9) %
- Laboratory abnormality: Thrombocytopenia, At least grade 3, % ([1]; N = 145): (2.8) %
- Laboratory abnormality: Total bilirubin, Any grade, % ([1]; N = 145): (31.0) %
- Laboratory abnormality: Total bilirubin, At least grade 3, % ([1]; N = 145): (4.1) %
- Nausea, Any grade, % ([1]; N = 145): (40) %
- Nausea, At least grade 3, % ([1]; N = 145): (3.4) %
- Pyrexia, Any grade, % ([1]; N = 145): (21.4) %
- Pyrexia, At least grade 3, % ([1]; N = 145): (2.1) %
- Serious AE: Anemia, % ([1]; N = 145): (2.1) %
- Serious AE: Back pain, % ([1]; N = 145): (2.1) %
- Serious AE: Chest pain, % ([1]; N = 145): (2.1) %
- Serious AE: Dyspnea, % ([1]; N = 145): (3.4) %
- Serious AE: Febrile neutropenia, % ([1]; N = 145): (2.8) %
- Serious AE: Pneumonia, % ([1]; N = 145): (3.4) %
- Serious AE: Pyrexia, % ([1]; N = 145): (2.8) %
- grade 2 rash, % ([1]; N = 145): 1.4%
- grade 3 dyspnea, % ([1]; N = 145): 6.2%
- grade 3 nausea, % ([1]; N = 145): 3.4%
- grade 3 rash, % ([1]; N = 145): 1.4%
- grade 4 rash, % ([1]; N = 145): 0.7%
- subjects with a treatment-emergent AE that led to study drug discontinuation ([1]; N = 145): 15.2%
- subjects with a treatment-emergent, serious AE ([1]; N = 145): 31.0%
- subjects who died while on study, % ([1]; N=145, none attributed by the investigator to entospletinib): 12.4%
- subjects with at least one AE ([1]; all treated subjects N=145): 94.5%
- time to grade 3 or 4 ALT/AST elevation, first quartile ([1]; human, in vivo, 800 mg): 4.1 weeks
- time to grade 3 or 4 ALT/AST elevation, third quartile ([1]; human, in vivo, 800 mg): 6.1 weeks
- subjects with ALT/AST elevation who resumed after interruption without further event, % ([1]; of 21 subjects): 57.1%
- grade 3 or 4 ALT/AST elevations that occurred by 6 weeks ([1]; of 21 subjects with elevations): 10
- Reversible grade 3 or 4 ALT/AST elevations, % ([1]; of 145 subjects): 14.5%
- Reversible grade 3 or 4 ALT/AST elevations, subjects ([1]; of 145 subjects): 21 subjects
- deaths on study due to disease progression ([1]; of eighteen deaths): 13
- tolerability ([1]; phase 2 study): well tolerated
- Ctrough, mean (% coefficient of variation) [2]: 1100 (44%) ng/mL
- Cmax ([2]; human, oral, read-out: Cmax, mean (% coefficient of variation)): 1490 ng/mL
- Discontinuing study drug: Adverse Events, % ([3]; ALL N = 78): (14.1%)
- Discontinuing study drug: Progressive Disease, % ([3]; ALL N = 78): (19.2%)
- Discontinuing study drug: Related AEs, % ([3]; ALL N = 78): (7.7%)
- Discontinuing study drug: Adverse Events, % ([3]; CLL N = 39): (7.7%)
- Discontinuing study drug: Progressive Disease, % ([3]; CLL N = 39): (10.3%)
- Discontinuing study drug: Related AEs, % ([3]; CLL N = 39): (5.1%)
- Discontinuing study drug: Adverse Events, % ([3]; NHL N = 39): (20.5%)
- Discontinuing study drug: Progressive Disease, % ([3]; NHL N = 39): (28.2%)
- Discontinuing study drug: Related AEs, % ([3]; NHL N = 39): (10.3%)
- Any event, All Grades, % ([3]; Safety Data Set N=78): (93.6) %
- Constipation, All Grades, % ([3]; Safety Data Set N=78): (21.8) %
- Constipation, Grade 1 ([3]; Safety Data Set N=78): 11
- Constipation, Grade 2 ([3]; Safety Data Set N=78): 5
- Constipation, Grade 3 ([3]; Safety Data Set N=78): 1
- Cough, All Grades, % ([3]; Safety Data Set N=78): (14.1) %
- Cough, Grade 1 ([3]; Safety Data Set N=78): 9
- Cough, Grade 2 ([3]; Safety Data Set N=78): 1
- Cough, Grade 3 ([3]; Safety Data Set N=78): 1
- Decreased appetite, All Grades, % ([3]; Safety Data Set N=78): (20.5) %
- Decreased appetite, Grade 1 ([3]; Safety Data Set N=78): 10
- Decreased appetite, Grade 2 ([3]; Safety Data Set N=78): 6
- Diarrhea, All Grades, % ([3]; Safety Data Set N=78): (28.2) %
- Diarrhea, Grade 1 ([3]; Safety Data Set N=78): 20
- Diarrhea, Grade 2 ([3]; Safety Data Set N=78): 2
- Dizziness, All Grades, % ([3]; Safety Data Set N=78): (17.9) %
- Dizziness, Grade 1 ([3]; Safety Data Set N=78): 14
- Dyspepsia, All Grades, % ([3]; Safety Data Set N=78): (10.3) %
- Dyspepsia, Grade 1 ([3]; Safety Data Set N=78): 3
- Dyspepsia, Grade 2 ([3]; Safety Data Set N=78): 5
- Fatigue, All Grades, % ([3]; Safety Data Set N=78): (43.6) %
- Fatigue, Grade 1 ([3]; Safety Data Set N=78): 13
- Fatigue, Grade 2 ([3]; Safety Data Set N=78): 16
- Fatigue, Grade 3 ([3]; Safety Data Set N=78): 5
- Headache, All Grades, % ([3]; Safety Data Set N=78): (20.5) %
- Headache, Grade 1 ([3]; Safety Data Set N=78): 13
- Headache, Grade 2 ([3]; Safety Data Set N=78): 2
- Headache, Grade 3 ([3]; Safety Data Set N=78): 1
- Insomnia, All Grades, % ([3]; Safety Data Set N=78): (14.1) %
- Insomnia, Grade 1 ([3]; Safety Data Set N=78): 8
- Insomnia, Grade 2 ([3]; Safety Data Set N=78): 3
- Nausea, All Grades, % ([3]; Safety Data Set N=78): (30.8) %
- Nausea, Grade 1 ([3]; Safety Data Set N=78): 18
- Nausea, Grade 2 ([3]; Safety Data Set N=78): 4
- Nausea, Grade 3 ([3]; Safety Data Set N=78): 2
- Oedema peripheral, All Grades, % ([3]; Safety Data Set N=78): (12.8) %
- Oedema peripheral, Grade 1 ([3]; Safety Data Set N=78): 8
- Oedema peripheral, Grade 2 ([3]; Safety Data Set N=78): 2
- Pyrexia, All Grades, % ([3]; Safety Data Set N=78): (19.2) %
- Pyrexia, Grade 1 ([3]; Safety Data Set N=78): 9
- Pyrexia, Grade 2 ([3]; Safety Data Set N=78): 6
- Vomiting, All Grades, % ([3]; Safety Data Set N=78): (10.3) %
- Vomiting, Grade 1 ([3]; Safety Data Set N=78): 6
- Vomiting, Grade 2 ([3]; Safety Data Set N=78): 2
- Grade 3 and 4 reversible ALT elevations, % of subjects [3, 4]: 12%
- Grade 3 and 4 reversible ALT elevations, number of subjects [3, 4]: 9 subjects
